From patent US4358607A, “Chloro-substituted benzospiro cyclopropane carboxylic acid” (American Cyanamid Co., priority 1978, dated 1982)

Legend:
Format in all cases: in vivo
[1] = tested on: Two-Spotted Spider Mite [Tetranychus urticae]; assay: Phosphate-Resistant Strain of Two-Spotted Spider Mite test
Method: Phosphate-Resistant Strain of Two-Spotted Spider Mite [Tetranychus urticae (Koch)].
Sieva lima bean plants, with primary leaves 7.6 to 10 cm long, are infested with about 100 adult mites per leaf 4 hours before use in this test, in order to allow egg-laying before treatment. The infested plants are dipped for 3 seconds with agitation into a 300 ppm solution, and the plants set in the hood to dry. After 2 days at 26.7° C., the adult mite mortality is estimated on one leaf under a 10X stereoscopic microscope. The other leaf is left on the plant an additional 5 days and then examined at 10X power to estimate the kill of eggs and of newly-hatched nymphs, giving a measure of ovicidal and residual action, respectively.
(§1) The rating system employed in these tests is as follows:
(§2) Compounds rated active (8 or 9) are further tested at reduced concentrations in 50% acetone: 50% water.

[2] = tested on: Southern Armyworm [Spodoptera eridania]; assay: Southern Armyworm test; settings: 2 days
Method: (§3) Southern Armyworm [Spodoptera eridania (Cramer)].
(§4) A sieva lima bean plant with just the primary leaves expanded to 7.6 to 10 cm is dipped for 3 seconds with agitation in a 1000 ppm solution and set in a hood to dry. Following this, one leaf is placed in a 10 cm petri dish which has a moist filter paper in the bottom and 10 third-instar armyworm larvae about 1 cm long. The dish is covered and held at 26.7° C. After 2 days mortality counts and estimates of the amount of feeding are made. Compounds showing partial kill and/or inhibition of feeding are held for an extra day for further observations.
as §1, §2

[3] = tested on: Southern Armyworm [Spodoptera eridania]; assay: Southern Armyworm residual activity, 7 days; settings: 7 days from original treatment
Method: as §3, §4
All compounds showing activity as defined above are retested, using the second leaf on the bean plant, after an interval of 7 days from original treatment, as an assay of residual activity.
The rating system employed in these tests is as follows: […]

[4] = tested on: Mexican Bean Beetle (Epilachna varivestis); assay: Mexican Bean Beetle test
From the text: Mexican Bean Beetle (Epilachna varivestis Mulsant)
Sieva lima bean plants (2 per pot) with primary leaves 7.6 to 10 cm long, are dipped in a 300 ppm solution and set in a hood to dry. One leaf is removed from the plant and placed in a 10 cm petri dish containing a moist filter paper on the bottom and 10 last-instar larvae (13 days from hatching).
The day after treatment, another leaf is removed from the plant and fed to the larvae after removing the remains of the original leaf. Two days after treatment, the third leaf is fed to the larvae, this usually being the last needed. The fourth leaf is used on the third day after treatment if the larvae have not finished feeding. The test is now set aside and held until adults have emerged, usually about 9 days after treatment began. After emergence is complete, each dish is examined for dead larvae, pupae or adults; deformed pupae or adults; larval-pupal intermediates or pupal-adult intermediates; or any other interference with normal molting, transformation and emergence of pupae or adults.
as §1, §2

CC1(C)C(C(=O)OC(C#N)c2cccc(Oc3ccccc3)c2)C12C=C(Cl)c1ccccc12 (stereo not shown) [drawing 11]
Activity rating, Phosphate Resistant Mites ([1]; 10 ppm): 0 (0-4% killed or affected) | Activity rating, Phosphate Resistant Mites ([1]; 100 ppm): 5 (51-60% mortality) | Activity rating, Phosphate Resistant Mites ([1]; 300 ppm): 8 (86-95% mortality) | Insecticidal activity rating, Southern Armyworms ([2]; 10 ppm): 7 (71-85% mortality) | Insecticidal activity rating, Southern Armyworms ([2]; 100 ppm): 9 (100% mortality) | Insecticidal activity rating, Southern Armyworms ([2]; 1000 ppm): 9 (100% mortality) | Insecticidal activity rating, Southern Armyworms, 7-days [3]: 0 (0-4% killed or affected) | Insecticidal activity rating, Mexican Bean Beetles ([4]; 10 ppm): 9 (100% mortality) | Insecticidal activity rating, Mexican Bean Beetles ([4]; 100 ppm): 9 (100% mortality) | Insecticidal activity rating, Mexican Bean Beetles ([4]; 300 ppm): 9 (100% mortality)
